Experiments:
Assay type in all cases: in vivo
[1] = Plasma bioanalysis in CCI mice after oral ESL; settings: oral ESL
[2] = system: peripheral nerve filaments of CCI mice; assay: Ectopic discharge of peripheral nerve filaments in CCI mice (electrophysiological recording); settings: for ectopic discharge firing rate: 5 preparations
Source text: Adult male BL CB F1 mice, weighing 25-30 g at the time of surgery and 26-38 g at the time of electrophysiological experiments, were used. The baseline paw withdrawal threshold (PWT) was examined using a series of graduated von Frey hairs (see below) on 3 consecutive days before surgery and re-assessed on the 7th and on the 14th days after surgery, before electrophysiological recording. The animals were killed by an overdose of pentobarbitone on completion of the study. The chronic constriction injury (CCI) model was prepared following the standard protocols described previously (Bennett and Xie, 1988). Mice were anaesthetised and the lateral side of the left thigh was shaved and sterilized with 75% ethanol. A small incision of approximately 0.5 cm was made parallel to the femur. The muscle was carefully separated to expose the sciatic nerve. Three loose ligatures were placed on the sciatic nerve with 5-0 suture silk thread at approximately 1 mm intervals. The wound was closed in layers with suture silk 4-0 and the animals were placed in a recovery chamber with the temperature controlled and set at 30° C. A dose of amoxicillin (0.02 mL, 3 mg) was routinely injected i.p. after surgery to prevent infection. The animals were returned to their home cages after complete recovery of consciousness and freedom of movement. For the first 2 days after surgery, the animals were closely monitored at least twice daily and subsequently, at least once daily until compound testing. Each animal was placed in a perspex cage on a metal mesh. A series of von Frey filaments (0.07 g, 0.16 g, 0.4 g, 0.6 g, 1.0 g) were applied to the plantar surface of the hind-paw, from below. The filaments were applied in ascending order (starting with the lowest force 0.07 g) to both ipsilateral and contralateral hind-paws. Each filament was applied 10 times with a protocol of one second on, one second off. The PWT was defined as being the lowest force required to elicit at least 5 paw withdrawal responses out of 10 trials. The baseline PWT was tested for 3 consecutive days before surgery and re-assessed on the 7th and 14th days after surgery to monitor the development of mechanical allodynia. Only those mice showing significant mechanical allodynia (PWT≦0.2 g) were selected for subsequent electrophysiological experiments. The mice were re-anaesthetised and the sciatic nerve was exposed via a dorsal incision on the hind-limb. The skin was secured (stitched) to a metal O-ring to form an oil pool for recording nerve activity. A reference electrode was connected to the metal O-ring to form a closed circuit with the nerve recording electrode. To record ectopic discharge generated from the intact animal, under a microscope, the small bundles of sural nerve (distal to the ligated area) were repeatedly teased and looped onto a unipolar silver electrode for examination. To facilitate the recording of ectopic discharge generated from the neuroma (ligated area) or from the DRG, the sciatic nerve was separated carefully from the surrounding connective tissues, sectioned at a more proximal site leaving the injured area intact or near the injured area leaving the more proximal part intact. A small bundle of nerve filaments were teased from the sciatic nerve from either the distal or proximal cut end of the sciatic nerve, to record neuroma-generated ectopic discharge, or from the proximal cut end to record DRG-generated ectopic discharge. The filament was looped on to a unipolar silver wire recording electrode with an indifference electrode connected to the connective tissues nearby, allowing the spontaneous activity generated from either the ligated area (sensitized axons) or from DRG (somata) to be recorded. The electrical signals were then recorded through a CED micro-1401 interface to a PC for later off-line analysis. Recording from a fibre with spontaneous activity was undertaken for at least 10 min for control and 40 min after either vehicle or ESL administration. […]

Mice (NMRI) = assay: Formalin paw test; settings: 300 mg/kg p.o.
Method: The method, which detects analgesic activity, follows that described by Wheeler-Aceto et al (see […]-ACETO, H. & A., C. (1991), “Standardization of the rat paw formalin test for the evaluation of analgesics”, Psychopharmacology, 104, 35-44). Mice (NMRI) were given an intraplantar injection of 5% formalin (25 μl) into the posterior left paw. […] The time spent licking was counted for 15 minutes, beginning 15 minutes after injection of formalin. 10 mice were studied per group. The test was performed blind. ESL and carbamazepine (CBZ) were tested at the doses of 10, 30, 100 and 300 mg/kg p.o., and oxcarbazepine (OXC) and R-Lic were tested at the doses of 100 and 300 mg/kg p.o., administered 60 minutes before the test (i.e. 45 minutes before formalin), and compared with a vehicle control group in each experiment. Morphine (64 mg/kg p.o.), administered under the same experimental conditions, was used as reference substance.

## CC(=O)O[C@H]1Cc2ccccc2N(C(N)=O)c2ccccc21 [ESL, S-(−)-10-acetoxy-10,11-dihydro-5H-dibenz/b,f/azepine-5-carboxamide]
[1]
  main metabolite in plasma: mainly to eslicarbazepine
  time to complete metabolism after administration (plasma): ≤ 1 h
[2]; DRG origin, ESL 100 mg/kg i.p., P<0.05 vs vehicle
  ectopic discharge, % of control: 58.43±13.21 % of control
[2]; DRG origin, ESL 100 mg/kg i.p., control 514.3±141.0, 6 preparations
  ectopic discharge average firing rate: 274.4±117.1 imps/min
[2]; intact CCI mice, ESL 100 mg/kg ip, 30-35 min after injection, P<0.001 vs control
  ectopic discharge, % of control level: 26.6±10.6 % of control
[2]; intact CCI mice, ESL 100 mg/kg ip, 30-35 min after injection, control 2048.0±391.6, mean±SEM
  ectopic discharge firing rate: 699.8±339.7 imps/min
[2]; neuroma origin (sciatic nerve sectioned proximally), ESL 100 mg/kg ip, 30 min after injection, control 1390.6±378.5
  ectopic discharge firing rate: 643.5±249.2 imps/min
[2]; neuroma origin, ESL 100 mg/kg ip, 30 min after injection, P<0.01
  ectopic discharge, % of control levels: 36.5±12.3 % of control
Mice (NMRI)
  licking in the formalin test at 300 mg/kg: abolished licking
